# Like-named read-outs stand apart in the source and are kept apart here.
# Test system: G. stearothermophilus spores
# Conditions: for Average Log Reduction: nominal 0.35 ppm H2O2, blades exposed serially; for Average Log Reduction / AVERAGE LOG REDUCTION: [H2O2] average, low; for AVERAGE LOG REDUCTION: nominal 0.6 ppm H2O2 vapor from urea complex, 6×10^4 spores per blade
# Protocol: Stainless steel scalpel blades were inoculated with 10 μL of inoculum containing 6×10^4 spores. The inoculum was then dried on the blade surface. Nine inoculated blades where placed in a 1 ft^3 sealed chamber constructed of acrylic. In the chamber a urea complex was confined in a glass tube with a flow restriction that allowed the concentration of peroxide in the chamber to be controlled. Three identically-inoculated blades where placed inside a covered petrie dish and placed near the chamber to serve as controls. At three day intervals, three blades were retrieved from the chamber as well as one control. These blades were subjected to a standard recovery, plating and incubation procedure from which the viable spore count and log reduction could be determined.
smiles,measurement,setting,value
OO [hydrogen peroxide],Average Log Reduction,"after 3 days exposure, high 0.35, 0.2, 0.5 ppm",1.12
same,Average Log Reduction,"after 7 days exposure, high 0.30, 0.2, 0.5 ppm",1.83
same,Average Log Reduction,"after 9 days exposure, high 0.39, 0.2, 0.6 ppm",≧4.0
same,AVERAGE LOG REDUCTION,"after 3 days exposure, high 0.56, 0.40, 0.83 ppm",1.5
same,AVERAGE LOG REDUCTION,"after 6 days exposure, high 0.66, 0.40, 0.83 ppm",2.7
same,AVERAGE LOG REDUCTION,"after 9 days exposure, high 0.66, 0.40, 0.95 ppm",≧4.8
same,log reduction in G. stearothermophilus spores per day,"nominal concentration of 0.6 ppm of hydrogen peroxide, from Table 1",~0.5

# Source: patent US20090263499A1, “AREA DECON[…] LOW-LEVEL CONCENTRATION OF […]” (Ethicon, Inc., priority 2008, published 2009)
